Data published in paper PMC10577698, “Development of Novel ^11C-Labeled Selective Orexin-2 Receptor Radioligands for Positron Emission Tomography Imaging” (ACS Medicinal Chemistry Letters, 2023).
Read-outs that look alike come from different tables or passages of the source.

What was measured:
orexin 2 receptors = target: T1, orexin 2 receptors (Rattus norvegicus, UniProt P56719); test: In vitro autoradiography in rat brain sections; conditions: for in vitro binding specificity: rat brain sections, autoradiography; for effect of blocker on radioactivity in OX2-rich brain regions: blocker 10 μM, autoradiography with [11C]1 or [11C]2, rat brain sections
T1 sequence (P56719 1-460): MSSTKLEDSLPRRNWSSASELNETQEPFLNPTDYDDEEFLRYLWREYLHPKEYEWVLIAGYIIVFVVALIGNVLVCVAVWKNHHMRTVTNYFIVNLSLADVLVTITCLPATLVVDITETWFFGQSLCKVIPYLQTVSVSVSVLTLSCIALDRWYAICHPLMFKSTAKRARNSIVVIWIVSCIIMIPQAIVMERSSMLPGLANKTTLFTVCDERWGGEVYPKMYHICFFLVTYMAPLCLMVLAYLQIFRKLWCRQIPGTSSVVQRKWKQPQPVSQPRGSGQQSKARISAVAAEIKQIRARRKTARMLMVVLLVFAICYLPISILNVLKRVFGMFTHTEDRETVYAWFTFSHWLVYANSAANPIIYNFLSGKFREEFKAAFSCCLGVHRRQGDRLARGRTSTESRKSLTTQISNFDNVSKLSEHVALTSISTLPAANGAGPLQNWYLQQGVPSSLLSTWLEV
Procedure: 2.5 In vitro autoradiography
The method for in vitro autoradiography was slightly modified from previous reports. 5 Rat
brain was cut into 20 μm sections, stored at −80 °C, and ready for the experiment. The rat
brain sections were preincubated with Tris−HCl buffer (50 mM) containing MgCl2 (2 mM)
and CaCl2 (1.2 mM) for 20 min at ambient temperature, followed by incubation with [11C]1
added to incubation solution. Then the brain sections were washed with ice-cold buffer for
three times and dipped in cold distilled water for 10 s. The brain sections were dried with
cold air. The exposure time for the phosphor plate in the autoradiography study is 1 h .

[1] = Stability of radiotracer in saline; format: physicochemical; conditions: within 90 min
Procedure: Based on the favorable in vitro pharmacological and ADME properties, compounds 1 and 2 were labeled with carbon-11 and evaluated as OX2 PET radioligands. […] The reaction mixtures were then diluted with the HPLC buffer and purified by a semipreparative reverse HPLC to give [^11C]1 and [^11C]2 in 71% and 20% radiochemical yields (decay-corrected) with the molar activities of 210 GBq/μmol and 185 GBq/μmol, respectively.

OX2R = tested on: OX2R; set-up: method as in PMID 19751316; conditions: cited from earlier work
hERG = hERG (Homo sapiens, UniProt Q12809); test: biochemical
Procedure: (§1) Human OX2 receptor binding (agonist radioligand) assays were finished by Gifford
(§2) Bioscience Limited. Competition binding assays were carried out in 96-well polypropylene
(§3) plates in a final volume of 250 µL per well. To each well were added 150 µL Human OX2
(§4) Receptor Membranes (MultiSpan Inc, MC1034), 50 µL of non-specific or test compound
(§5) or buffer (50 mM Tris, 5 mM MgCl2, 0.1 mM EDTA, pH 7.4), and 50 µL radioligand
(§6) ([3H]EMPA) solution in the buffer. The plate was incubated at 30 °C for 60 minutes with
(§7) gentle agitation. The incubation was stopped by vacuum filtration onto presoaked (Tris
(§8) buffer with PEI) GF/C filters using a 96-well FilterMate™ harvester, followed by 5 washes
(§9) with ice-cold wash buffer (50 mM Tris, 5 mM MgCl2, 0.1 mM EDTA, pH 7.4). Filters were
(§10) then dried under a warm air stream and sealed in polyethylene, a scintillation cocktail was
(§11) specific binding. Data were fitted using the non-linear curve fitting routines in Prism®
(§12) (Graphpad Software Inc) to determine IC50. Ki was subsequently calculated using the
(§13) CYP enzymes and hERG inhibition assays were finished by Reaction Biology Corporation.

human orexin 2 receptor = target: T2, human orexin 2 receptor (Homo sapiens, UniProt O43614); test: Human OX2 receptor radioligand ([3H]EMPA) competition binding assay; conditions: for Selectivity (OX2R/OX1R): Figure 4b
T2 sequence (O43614 1-444): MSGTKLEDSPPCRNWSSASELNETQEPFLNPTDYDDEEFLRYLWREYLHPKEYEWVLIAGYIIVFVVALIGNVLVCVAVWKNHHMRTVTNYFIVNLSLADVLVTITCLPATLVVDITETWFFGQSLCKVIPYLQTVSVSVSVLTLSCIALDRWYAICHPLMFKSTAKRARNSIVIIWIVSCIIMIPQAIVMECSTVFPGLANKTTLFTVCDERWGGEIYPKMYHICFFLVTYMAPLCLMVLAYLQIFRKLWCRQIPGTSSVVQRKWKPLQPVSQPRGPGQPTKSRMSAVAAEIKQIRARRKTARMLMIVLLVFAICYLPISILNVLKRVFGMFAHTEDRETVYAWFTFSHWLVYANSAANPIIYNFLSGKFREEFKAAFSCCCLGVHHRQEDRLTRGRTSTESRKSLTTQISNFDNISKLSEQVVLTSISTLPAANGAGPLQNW
Procedure: as §1, §2, §3, §4, §5, §6, §7, §8, §9, §10, §11, §12, §13

CYP1A2 = target: T3, CYP1A2 (Homo sapiens, UniProt P05177); test: CYP450 inhibition assay
T3 sequence (P05177 1-516): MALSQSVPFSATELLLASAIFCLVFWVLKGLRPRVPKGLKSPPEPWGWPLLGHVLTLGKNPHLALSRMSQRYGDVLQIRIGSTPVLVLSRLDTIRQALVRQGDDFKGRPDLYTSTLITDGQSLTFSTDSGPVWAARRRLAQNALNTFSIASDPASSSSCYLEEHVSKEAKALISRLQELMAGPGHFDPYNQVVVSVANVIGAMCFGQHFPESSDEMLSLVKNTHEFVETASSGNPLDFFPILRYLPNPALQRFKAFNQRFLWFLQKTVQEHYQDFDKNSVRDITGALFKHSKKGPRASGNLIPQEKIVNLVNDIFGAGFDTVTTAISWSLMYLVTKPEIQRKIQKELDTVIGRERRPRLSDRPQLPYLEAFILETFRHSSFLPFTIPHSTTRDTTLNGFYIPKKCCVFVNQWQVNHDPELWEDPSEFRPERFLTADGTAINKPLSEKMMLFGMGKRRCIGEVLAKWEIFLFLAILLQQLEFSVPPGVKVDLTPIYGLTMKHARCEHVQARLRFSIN
Procedure: as §1, §2, §3, §4, §5, §6, §7, §8, §9, §10, §11, §12, §13

CYP19A = target: T4, CYP19A (Homo sapiens, UniProt P11511)
T4 sequence (P11511 1-503): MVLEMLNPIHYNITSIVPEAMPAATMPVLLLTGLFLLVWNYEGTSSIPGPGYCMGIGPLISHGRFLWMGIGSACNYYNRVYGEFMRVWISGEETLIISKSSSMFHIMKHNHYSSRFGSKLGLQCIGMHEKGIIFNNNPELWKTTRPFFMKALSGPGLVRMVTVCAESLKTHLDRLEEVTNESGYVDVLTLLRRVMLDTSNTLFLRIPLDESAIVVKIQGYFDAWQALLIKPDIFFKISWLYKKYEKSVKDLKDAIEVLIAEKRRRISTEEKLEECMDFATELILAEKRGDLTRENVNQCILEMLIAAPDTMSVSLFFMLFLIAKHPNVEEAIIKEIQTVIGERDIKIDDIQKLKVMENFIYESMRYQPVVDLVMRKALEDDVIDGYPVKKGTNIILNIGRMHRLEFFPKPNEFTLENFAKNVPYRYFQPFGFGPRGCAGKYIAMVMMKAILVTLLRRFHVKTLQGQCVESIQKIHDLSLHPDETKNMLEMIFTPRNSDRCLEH

CYP2C19 = CYP2C19 (Homo sapiens, UniProt P33261); test: biochemical
From the text: as §13

CYP2C9 = CYP2C9 (Homo sapiens, UniProt P11712); test: biochemical
Procedure: as §1, §2, §3, §4, §5, §6, §7, §8, §9, §10, §11, §12, §13

CYP3A4 = CYP3A4 (Homo sapiens, UniProt P08684); test: biochemical
From the text: as §13

CYP2D6 = CYP2D6 (Homo sapiens, UniProt P10635); test: biochemical
From the text: as §13

rat brain = test: Dynamic PET imaging in Sprague-Dawley rats
Procedure: The imaging studies were conducted according to the previous literature6,7 with minor
modifications. PET scans were carried out by an Inveon PET scanner. Sprague-Dawley
rats were kept under anesthesia with 1-2% (v/v) isoflurane during the scan. The radiotracer
[11C]1 (37–42 MBq) or [11C]2 (32–37 MBq) was injected via a preinstalled catheter into
the tail vein. A dynamic scan in 3D mode was acquired for 60 min. For blocking studies, a
solution of elacridar (3 mg/kg) in 300 µL saline containing 10% DMSO, 40% polyethylene
glycol, and 5% Tween® 80 was injected at 20 min via the pre-embedded tail vein catheter
before PET tracer injection. An MR template of SD rats was applied for PET/MR merged
images. The radioactivity was decay-corrected and expressed as the standardized uptake
value (SUV). SUV = (radioactivity per mL tissue / injected radioactivity) x body weight.

[2] = target: peripheral benzodiazepine receptor (Rattus norvegicus, UniProt P16257); test: Off-target binding (NIMH PDSP), peripheral benzodiazepine receptor
[3] = SD rats pretreated with Elacridar 3 mg/kg 20 min before tracer

Chain of CYP3A4 (P08684 whole entry, species assumed): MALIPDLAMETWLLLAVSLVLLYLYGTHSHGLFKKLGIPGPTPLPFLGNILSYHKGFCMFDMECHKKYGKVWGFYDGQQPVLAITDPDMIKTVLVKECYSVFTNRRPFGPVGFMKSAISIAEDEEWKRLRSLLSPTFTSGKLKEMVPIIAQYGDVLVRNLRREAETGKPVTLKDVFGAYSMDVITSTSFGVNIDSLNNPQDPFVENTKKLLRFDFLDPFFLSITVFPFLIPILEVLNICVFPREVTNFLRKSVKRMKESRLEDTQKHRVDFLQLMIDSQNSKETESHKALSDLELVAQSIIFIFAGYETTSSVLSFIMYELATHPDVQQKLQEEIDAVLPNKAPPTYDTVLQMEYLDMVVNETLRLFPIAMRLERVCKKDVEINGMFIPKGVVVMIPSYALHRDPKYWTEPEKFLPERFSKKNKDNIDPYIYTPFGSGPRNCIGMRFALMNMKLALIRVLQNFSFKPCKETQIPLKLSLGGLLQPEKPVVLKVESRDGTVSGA
Chain of CYP2C9 (P11712 whole entry, species assumed): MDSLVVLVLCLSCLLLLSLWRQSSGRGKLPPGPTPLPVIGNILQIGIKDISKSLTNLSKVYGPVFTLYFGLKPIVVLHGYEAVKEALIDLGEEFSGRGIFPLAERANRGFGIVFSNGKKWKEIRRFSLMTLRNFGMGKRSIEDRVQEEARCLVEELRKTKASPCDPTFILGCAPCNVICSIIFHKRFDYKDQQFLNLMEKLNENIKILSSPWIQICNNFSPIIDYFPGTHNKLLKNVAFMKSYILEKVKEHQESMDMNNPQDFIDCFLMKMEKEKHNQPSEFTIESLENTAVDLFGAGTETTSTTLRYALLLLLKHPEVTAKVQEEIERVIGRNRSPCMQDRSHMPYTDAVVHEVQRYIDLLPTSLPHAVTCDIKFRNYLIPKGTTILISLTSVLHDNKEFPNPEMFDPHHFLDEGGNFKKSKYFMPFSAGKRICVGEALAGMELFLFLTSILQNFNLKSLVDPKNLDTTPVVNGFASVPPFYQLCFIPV
Chain of hERG (Q12809 whole entry): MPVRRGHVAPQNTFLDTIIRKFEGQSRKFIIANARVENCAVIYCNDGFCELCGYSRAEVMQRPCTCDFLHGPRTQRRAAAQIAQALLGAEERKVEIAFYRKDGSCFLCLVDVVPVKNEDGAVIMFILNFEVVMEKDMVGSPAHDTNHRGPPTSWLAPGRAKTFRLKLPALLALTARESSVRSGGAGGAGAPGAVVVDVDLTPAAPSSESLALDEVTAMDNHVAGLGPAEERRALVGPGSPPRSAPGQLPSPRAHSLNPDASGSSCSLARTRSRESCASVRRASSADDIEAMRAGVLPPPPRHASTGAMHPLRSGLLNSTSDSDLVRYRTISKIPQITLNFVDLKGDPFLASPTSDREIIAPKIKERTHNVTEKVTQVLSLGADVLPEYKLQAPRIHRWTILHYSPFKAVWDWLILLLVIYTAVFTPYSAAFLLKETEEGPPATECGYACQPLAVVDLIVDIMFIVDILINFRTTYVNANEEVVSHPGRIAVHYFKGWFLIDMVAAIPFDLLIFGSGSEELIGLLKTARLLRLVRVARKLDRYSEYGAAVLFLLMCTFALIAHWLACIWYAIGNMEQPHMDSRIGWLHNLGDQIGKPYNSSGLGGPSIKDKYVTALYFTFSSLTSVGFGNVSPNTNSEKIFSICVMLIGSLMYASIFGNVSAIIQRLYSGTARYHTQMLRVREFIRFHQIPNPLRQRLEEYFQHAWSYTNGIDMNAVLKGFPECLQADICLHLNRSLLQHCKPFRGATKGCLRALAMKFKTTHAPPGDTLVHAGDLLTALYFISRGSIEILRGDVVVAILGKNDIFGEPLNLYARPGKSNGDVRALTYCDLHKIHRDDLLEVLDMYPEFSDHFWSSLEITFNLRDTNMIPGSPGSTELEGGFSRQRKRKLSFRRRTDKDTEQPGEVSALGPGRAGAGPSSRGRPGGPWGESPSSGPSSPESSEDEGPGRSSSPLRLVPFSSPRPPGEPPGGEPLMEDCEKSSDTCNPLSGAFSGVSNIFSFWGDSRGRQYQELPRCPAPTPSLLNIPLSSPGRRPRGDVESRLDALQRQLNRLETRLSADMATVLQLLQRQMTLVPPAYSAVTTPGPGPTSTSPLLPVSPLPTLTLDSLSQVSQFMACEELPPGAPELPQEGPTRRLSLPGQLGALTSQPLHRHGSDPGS
Chain of CYP2C19 (P33261 whole entry, species assumed): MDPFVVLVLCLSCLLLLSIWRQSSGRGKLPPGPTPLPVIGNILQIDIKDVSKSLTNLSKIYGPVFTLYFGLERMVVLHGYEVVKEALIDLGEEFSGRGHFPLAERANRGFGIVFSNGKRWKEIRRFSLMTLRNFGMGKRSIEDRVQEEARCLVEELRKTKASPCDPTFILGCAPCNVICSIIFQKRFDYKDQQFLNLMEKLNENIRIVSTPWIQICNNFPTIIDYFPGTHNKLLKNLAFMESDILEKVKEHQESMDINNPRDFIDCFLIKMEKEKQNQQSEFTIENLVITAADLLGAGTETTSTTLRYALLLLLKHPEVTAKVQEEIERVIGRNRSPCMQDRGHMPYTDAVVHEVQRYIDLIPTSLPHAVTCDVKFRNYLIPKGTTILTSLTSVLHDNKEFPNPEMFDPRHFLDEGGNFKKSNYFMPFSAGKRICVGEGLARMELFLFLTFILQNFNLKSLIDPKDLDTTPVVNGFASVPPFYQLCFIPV
Chain of CYP2D6 (P10635 whole entry, species assumed): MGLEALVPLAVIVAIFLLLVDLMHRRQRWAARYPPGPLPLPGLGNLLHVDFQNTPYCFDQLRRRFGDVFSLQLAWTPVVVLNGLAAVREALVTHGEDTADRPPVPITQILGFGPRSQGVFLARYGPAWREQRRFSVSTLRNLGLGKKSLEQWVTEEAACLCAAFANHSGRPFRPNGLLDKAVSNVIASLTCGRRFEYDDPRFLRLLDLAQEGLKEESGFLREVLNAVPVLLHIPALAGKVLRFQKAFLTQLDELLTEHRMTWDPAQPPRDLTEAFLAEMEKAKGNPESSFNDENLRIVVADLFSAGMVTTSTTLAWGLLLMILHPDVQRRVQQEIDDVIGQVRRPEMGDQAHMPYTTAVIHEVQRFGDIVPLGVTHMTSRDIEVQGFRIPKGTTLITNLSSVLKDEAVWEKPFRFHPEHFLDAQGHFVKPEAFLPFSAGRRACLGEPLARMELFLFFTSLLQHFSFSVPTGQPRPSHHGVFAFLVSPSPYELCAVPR

Compound	in vitro binding specificity (orexin 2 receptors)	stability in saline [1]	IC50 (hERG)	effect of blocker on radioactivity in OX2-rich brain regions (orexin 2 receptors)	Ki (human orexin 2 receptor)	target selectivity OX2/OX1 (human orexin 2 receptor)	Selectivity (OX2R/OX1R) (human orexin 2 receptor)	IC50 (CYP1A2)	IC50 (CYP19A)	IC50 (CYP2C19)	IC50 (CYP2C9)	IC50 (CYP3A4)	IC50 (CYP2D6)	also measured
CCN(Cc1ccccc1)C(=O)CN(c1ccccc1O[11CH3])S(=O)(=O)c1ncccc1C [[^11C]1]	good to excellent in vitro binding specificity	stable	–	–	–	–	–	–	–	–	–	–	–	–
orexin-B: endogenous neuropeptide ligand, a 28 amino acid peptide	–	–	–	–	–	–	–	–	–	–	–	–	–	selectivity toward OX2R against OX1R (OX2R): > 10 folds
CCN(Cc1ccccc1)C(=O)CN(c1ccc(OC)nc1)S(=O)(=O)c1ncccc1C [Compound 2]	–	–	> 100 µM	remarkably diminished the radioactivity	0.0022 µM	> 600 folds	1220	> 5 µM	> 5 µM	> 5 µM	> 5 µM	> 5 µM	> 5 µM	IC50 (human orexin 2 receptor; read-out: IC50/OX2, [3H]EMPA competition, human OX2 receptor membranes): 0.0044 µM
CCN(Cc1ccccc1)C(=O)CN(c1ccc(O[11CH3])nc1)S(=O)(=O)c1ncccc1C [[^11C]2]	good to excellent in vitro binding specificity	stable	–	–	–	–	–	–	–	–	–	–	–	highest radioactivity levels in hippocampus and cerebellum (rat brain; [3]): 0.9 SUV; radioactivity level after washout in hippocampus and cerebellum (rat brain; [3]): 0.3 SUV; brain uptake (rat brain; baseline PET, SD rats): poor brain uptake; highest radioactivity levels in hippocampus and cerebellum (rat brain; baseline, SD rats, 2 min postadministration of tracer): around 0.4 SUV; radioactivity level after washout in hippocampus and cerebellum (rat brain; baseline, SD rats, 60 min scan): 0.2 SUV; bound radioactivity levels in hippocampus and cerebellum after blocking (rat brain; preadministration of EMPA 1 mg/kg i.v., SD rats): did not remarkably reduce
CCN(Cc1ccccc1)C(=O)CN(c1ccccc1OC)S(=O)(=O)c1ncccc1C [Compound 1]	–	–	> 100 µM	remarkably diminished the radioactivity	0.0036 µM	> 600 folds	601	> 5 µM	> 5 µM	> 5 µM	> 5 µM	> 5 µM	> 5 µM	IC50 (human orexin 2 receptor): 0.0071 µM; Ki [2]: 0.253 µM
